Bridge positions count the residues as written; N and C are the ends. Square brackets hold non-standard residues; d marks the D form. Peptide text beside a SMILES is read from it. 1Nal = N[C@@H](Cc1cccc2ccccc12)C(=O)O; His(π-Me) = Cn1cncc1C[C@H](N)C(=O)O; NMeF = CN[C@@H](Cc1ccccc1)C(=O)O; Abu = CC[C@H](N)C(=O)O; Aib = CC(C)(N)C(=O)O
Tests used:
Assay type in all cases: cell-based
Details in all cases: LB broth, 5×10^5 CFU/ml, 37° C., 18 hours, scored by eye
[1] = test system: E. coli 25922; experiment: Minimum Inhibitory Concentration (MIC) determination, E. coli 25922; set-up: unit not given here
Description: (§1) MICs were determined by performing two-fold serial dilutions of peptides in LB broth to a final volume of 0.1 ml in round-bottom 96-well assay plates (Corning Life Sciences No 3788). Peptides were initially resuspended in 100% DMSO to 10 mM and subsequently diluted in LB medium to the appropriate concentration. Each well was inoculated with 5×10^5 CFU/ml of the screening stain and incubated at 37° C. without agitation for 18 hours. Plates were scored by eye, and the lowest compound concentration preventing visible growth was determined to be the MIC.

[2] = test system: E. coli BW25113; experiment: Minimum Inhibitory Concentration (MIC) determination, E. coli BW25113; set-up: unit not given here
Description: as §1

[3] = test system: E. coli 25922 IMP; experiment: Minimum Inhibitory Concentration (MIC) determination, E. coli 25922 IMP
Description: as §1

Q: Which “MIC E. coli 25922 WUXI::MIC” value [1] does the source give for `CC[C@@H]1NC(=O)[C@H](Cc2ccccc2)NC(=O)CSC[C@@H](C(=O)NCC(N)=O)NC(=O)[C@H](Cc2cncn2C)NC(=O)[C@H](CCC(N)=O)NC(=O)[C@H](Cc2c[nH]cn2)NC(=O)[C@H](Cc2ccc(O)cc2)N(C)C(=O)[C@H](CCCNC(=N)N)NC(=O)[C@H](CO)NC(=O)CNC(=O)[C@H](Cc2c[nH]cn2)NC(=O)[C@H](Cc2cccc3ccccc23)NC1=O` (racemic) [Compound 42] here?
A: 100

Q: With `CC[C@@H]1NC(=O)[C@H](Cc2ccccc2)NC(=O)CSC[C@@H](C(=O)NCC(N)=O)NC(=O)[C@H](Cc2cncn2C)NC(=O)[C@H](CC)NC(=O)[C@H](Cc2c[nH]cn2)NC(=O)[C@H](Cc2ccc(O)cc2)N(C)C(=O)[C@H](CCCNC(=N)N)NC(=O)[C@H](CO)NC(=O)CNC(=O)[C@H](Cc2c[nH]cn2)NC(=O)[C@H](Cc2cccc3ccccc23)NC1=O` (stereo in doubt) [Compound 41] as the compound, how does the “MIC E. coli 25922 WUXI::MIC” value [1] read?
A: >100

Q: With `CCC1NC(=O)C(Cc2c[nH]cn2)NC(=O)C(Cc2ccc(O)cc2)N(C)C(=O)C(CCCNC(=N)N)NC(=O)C(CO)NC(=O)CNC(=O)C(Cc2c[nH]cn2)NC(=O)C(Cc2cccc3ccccc23)NC(=O)C(CC)NC(=O)C(Cc2ccccc2)N(C)C(=O)CSCC(C(=O)NCC(N)=O)NC(=O)C(Cc2cncn2C)NC1=O` (racemic) [Compound 44] as the compound, how does the “MIC E. coli 25922 WUXI::MIC” value [1] read?
A: >100

Q: With `CC[C@@H]1NC(=O)[C@H](Cc2ccccc2)NC(=O)CSC[C@@H](C(=O)NCC(N)=O)NC(=O)[C@H](Cc2cncn2C)NC(=O)[C@H](CN)NC(=O)[C@H](Cc2c[nH]cn2)NC(=O)[C@H](Cc2ccc(O)cc2)N(C)C(=O)[C@H](CCCNC(=N)N)NC(=O)[C@H](CO)NC(=O)CNC(=O)[C@H](Cc2c[nH]cn2)NC(=O)[C@H](Cc2cccc3ccccc23)NC1=O` (racemic) [Compound 46] as the compound, how does the “MIC E. coli 25922 WUXI::MIC” value [1] read?
A: 100

Q: For `CC[C@@H]1NC(=O)[C@H](Cc2c[nH]cn2)NC(=O)[C@H](Cc2ccccc2)N(C)C(=O)[C@H](CC)NC(=O)[C@H](CO)NC(=O)CNC(=O)[C@H](Cc2c[nH]cn2)NC(=O)[C@H](Cc2cccc3ccccc23)NC(=O)[C@H](C(C)C)NC(=O)[C@H](Cc2ccccc2)NC(=O)CSC[C@@H](C(=O)NCC(N)=O)NC(=O)[C@H](Cc2cncn2C)NC1=O` [Compound 8, (3R,6S,9S,12S,15S,18S,21S,27S,30S, 33S,36S)-N-(2-amino-2-oxo-ethyl)-15,36-dibenzyl-9,18-diethyl-21-(hydroxymethyl)-12,27-bis(1H-imidazol-4-ylmethyl)-33-isopropyl-16-methyl-6-[(3-methylimidazol-4-yl)methyl]-30-(1-naphthylmethyl)-5,8,11,14,17,20,23,26,29,32,35,38-dodecaoxo-1-thia-4,7,10,13,16,19,22,25,28,31,34,37-dodecazacyclononatriacontane-3-carboxamide] ({CH2CO}-FV[1Nal]HGS[Abu][NMeF]H[Abu][His(π-Me)]CG-NH2; thioether N-12), which “MIC E. coli BW25113 WUXI::MIC” value [2] is on record?
A: >32

Q: What about the “MIC E. coli 25922 IMP WUXI::MIC” value [3] of the same compound?
A: 4

Q: `CC[C@H](C)[C@@H]1NC(=O)[C@H]([C@@H](C)O)NC(=O)[C@H](Cc2cncn2C)NC(=O)[C@H](Cc2ccccc2)NC(=O)CSC[C@@H](C(=O)NCC(N)=O)NC(=O)[C@H](Cc2ccccc2)NC(=O)[C@H](Cc2c[nH]c3ccccc23)NC(=O)[C@H](Cc2ccc(O)cc2)NC(=O)[C@H](Cc2cncn2C)NC(=O)[C@H](Cc2ccccc2)NC(=O)C(C)(C)NC(=O)[C@H](CCCNC(=N)N)NC(=O)[C@H](CCCCN)NC(=O)[C@H](CCCNC(=N)N)NC1=O` [Compound 54, trifluoroacetic acid] ({CH2CO}-F[His(π-Me)]TIRKR[Aib]F[His(π-Me)]YWFCG-NH2; thioether N-14) was tested. Which “MIC E. coli BW25113 WUXI::MIC” value [2] did it give?
A: 8

Q: And the “MIC E. coli 25922 IMP WUXI::MIC” value [3]?
A: 0.5

Q: Which results are given for `CC[C@H](C)[C@@H]1NC(=O)[C@H]([C@@H](C)O)NC(=O)[C@H](Cc2cncn2C)NC(=O)[C@H](Cc2ccccc2)NC(=O)CSC[C@@H](C(=O)NCC(N)=O)NC(=O)[C@H](Cc2ccc(O)cc2)NC(=O)[C@H](Cc2c[nH]c3ccccc23)NC(=O)[C@H](Cc2ccc(O)cc2)NC(=O)[C@H](CCCNC(=N)N)NC(=O)[C@H](Cc2ccccc2)NC(=O)C(C)(C)NC(=O)[C@H](CCCNC(=N)N)NC(=O)[C@H](CCCCN)NC(=O)[C@H](CCCNC(=N)N)NC1=O` [Compound 52] ({CH2CO}-F[His(π-Me)]TIRKR[Aib]FRYWYCG-NH2; thioether N-14)?
A: MIC E. coli BW25113 WUXI::MIC [2]: 1; MIC E. coli 25922 IMP WUXI::MIC [3]: 0.125

Q: What does the source list for `CC[C@@H]1NC(=O)[C@H](Cc2ccccc2)NC(=O)CSC[C@@H](C(=O)NCC(N)=O)NC(=O)[C@H](Cc2cncn2C)NC(=O)[C@H](CCCNC(=N)N)NC(=O)[C@H](Cc2cnc[nH]2)NC(=O)[C@H](Cc2ccccc2)N(C)C(=O)[C@H](CCCNC(=N)N)NC(=O)[C@H](CO)NC(=O)CNC(=O)[C@H](Cc2c[nH]cn2)NC(=O)[C@H](Cc2c[nH]c3ccccc23)NC1=O` [Compound 7, (3R,6S,9S,12S,15S,18S,21S,27S,30S, 33S,36S)-N-(2-amino-2-oxo-ethyl)-15,36-dibenzyl-33-ethyl-9,18-bis(3-guanidinopropyl)-21-(hydroxymethyl)-12,27-bis(1H-imidazol-4-ylmethyl)-30-(1H-indol-3-ylmethyl)-16-methyl-6-[(3-methylimidazol-4-yl)methyl]-5,8,11,14,17,20,23,26,29,32,35,38-dodecaoxo-1-thia-4,7,10,13,16,19,22,25,28,31,34,37-dodecazacyclononatriacontane-3-carboxamide] ({CH2CO}-F[Abu]WHGSR[NMeF]HR[His(π-Me)]CG-NH2; thioether N-12)?
A: MIC E. coli BW25113 WUXI::MIC [2]: 2; MIC E. coli 25922 IMP WUXI::MIC [3]: 0.0005

Q: For `CC(C)[C@@H]1NC(=O)[C@H](Cc2ccccc2)NC(=O)CSC[C@@H](C(=O)NCC(N)=O)NC(=O)[C@H](Cc2cncn2C)NC(=O)[C@H](CCCNC(=N)N)NC(=O)[C@H](Cc2cnc[nH]2)NC(=O)[C@H](Cc2ccccc2)N(C)C(=O)[C@H](CCCNC(=N)N)NC(=O)[C@H](CO)NC(=O)CNC(=O)[C@H](Cc2cnc[nH]2)NC(=O)[C@H](Cc2c[nH]c3ccccc23)NC1=O` (racemic) [Compound 9, rac-(3R,6S,9S,12S,15S,18S,21S,27S,30S, 33S,36S)-N-(2-amino-2-oxo-ethyl)-15,36-dibenzyl-9,18-bis(3-guanidinopropyl)-21-(hydroxymethyl)-12,27-bis(1H-imidazol-5-ylmethyl)-30-(1H-indol-3-ylmethyl)-33-isopropyl-16-methyl-6-[(3-methylimidazol-4-yl)methyl]-5,8,11,14,17,20,23,26,29,32,35,38-dodecaoxo-1-thia-4,7,10,13,16,19,22,25,28,31,34,37-dodecazacyclononatriacontane-3-carboxamide], which “MIC E. coli BW25113 WUXI::MIC” value [2] is on record?
A: 8

Q: And the “MIC E. coli 25922 IMP WUXI::MIC” value [3]?
A: 9.5367E−07

Q: With `CC[C@@H]1NC(=O)[C@H](Cc2ccccc2)N(C)C(=O)CSC[C@@H](C(=O)NCC(N)=O)NC(=O)[C@H](Cc2cncn2C)NC(=O)[C@H](CN)NC(=O)[C@H](Cc2c[nH]cn2)NC(=O)[C@H](Cc2ccc(O)cc2)N(C)C(=O)[C@H](CCCNC(=N)N)NC(=O)[C@H](CO)NC(=O)CNC(=O)[C@H](Cc2c[nH]cn2)NC(=O)[C@H](Cc2cccc3ccccc23)NC1=O` (racemic) [Compound 48] as the compound, how does the “MIC E. coli 25922 WUXI::MIC” value [1] read?
A: >100

Q: How did the “MIC E. coli BW25113 WUXI::MIC” value [2] turn out when `CC[C@@H]1NC(=O)[C@H](Cc2ccccc2)NC(=O)CSC[C@@H](C(=O)NCC(N)=O)NC(=O)[C@H](Cc2cncn2C)NC(=O)[C@H](CCCNC(=N)N)NC(=O)[C@H](Cc2cnc[nH]2)NC(=O)[C@H](Cc2ccccc2)N(C)C(=O)[C@H](CCCNC(=N)N)NC(=O)[C@H](CO)NC(=O)CNC(=O)[C@H](Cc2cnc[nH]2)NC(=O)[C@H](Cc2cccc3ccccc23)NC1=O` (racemic) [Compound 10, rac-(3R,6S,9S,12S,15S,18S,21S,27S,30S,3 3S,36S)-N-(2-amino-2-oxo-ethyl)-15,36-dibenzyl-33-ethyl-9,18-bis(3-guanidinopropyl)-21-(hydroxymethyl)-12,27-bis(1H-imidazol-5-ylmethyl)-16-methyl-6-[(3-methylimidazol-4-yl)methyl]-30-(1-naphthylmethyl)-5,8,11,14,17,20,23,26,29,32,35,38-dodecaoxo-1-thia-4,7,10,13,16,19,22,25,28,31,34,37-dodecazacyclononatriacontane-3-carboxamide] was run?
A: 8

Q: And the “MIC E. coli 25922 IMP WUXI::MIC” value [3]?
A: 2.3842E−07

Q: For `CC[C@@H]1NC(=O)[C@H](Cc2ccccc2)N(C)C(=O)CSC[C@@H](C(=O)NCC(N)=O)NC(=O)[C@H](Cc2cncn2C)NC(=O)[C@H](CCC(N)=O)NC(=O)[C@H](Cc2c[nH]cn2)NC(=O)[C@H](Cc2ccc(O)cc2)N(C)C(=O)[C@H](CCCNC(=N)N)NC(=O)[C@H](CO)NC(=O)CNC(=O)[C@H](Cc2c[nH]cn2)NC(=O)[C@H](Cc2cccc3ccccc23)NC1=O` (racemic) [Compound 45], which “MIC E. coli 25922 WUXI::MIC” value [1] is on record?
A: >100

Q: `CC(C)[C@@H]1NC(=O)[C@H](Cc2ccccc2)NC(=O)CSC[C@@H](C(=O)NCC(N)=O)NC(=O)[C@H](Cc2cncn2C)NC(=O)[C@H](CCCNC(=N)N)NC(=O)[C@H](Cc2cnc[nH]2)NC(=O)[C@H](Cc2ccccc2)N(C)C(=O)[C@H](CCCNC(=N)N)NC(=O)[C@H](CO)NC(=O)CNC(=O)[C@H](Cc2c[nH]cn2)NC(=O)[C@H](Cc2cccc3ccccc23)NC1=O` [Compound 6, (3R,6S,9S,12S,15S,18S,21S,27S,30S, 33S,36S)-N-(2-amino-2-oxo-ethyl)-15,36-dibenzyl-9,18-bis(3-guanidinopropyl)-21-(hydroxymethyl)-12,27-bis(1H-imidazol-4-ylmethyl)-33-isopropyl-16-methyl-6-[(3-methylimidazol-4-yl)methyl]-30-(1-naphthylmethyl)-5,8,11,14,17,20,23,26,29,32,35,38-dodecaoxo-1-thia-4,7,10,13,16,19,22,25,28,31,34,37-dodecazacyclononatriacontane-3-carboxamide] ({CH2CO}-FV[1Nal]HGSR[NMeF]HR[His(π-Me)]CG-NH2; thioether N-12) was tested. Which “MIC E. coli BW25113 WUXI::MIC” value [2] did it give?
A: 2

Q: What about the “MIC E. coli 25922 IMP WUXI::MIC” value [3] of the same compound?
A: <0.000125
